Several values for one entry are separate records, joined by “and”; a condition that tells them apart may be missing. Equal entries are not always repeated.
Columns and labels:
in vivo = conditions: wild-type, zebrafish (Danio rerio), in vivo
Text: (§1) The Zebrafish (Danio rerio) has been established as a modern experimental vertebrate model for assessing the toxicity of diverse synthetic and natural small molecules (SMs). […] Thus, these previously reported methodologies were adapted in our laboratory with slight modifications for the toxicological assessment of the selected pyridophenanthridin-6-one 4f and its corresponding precursors 6f–8f (Table 2).
(§2) Wild-type adult zebrafish of both sexes were separated in two tanks (30 L each), according to their gender, at 26 ± 2 °C under natural light-dark photoperiods. Fishes were fed twice daily, and the water quality was recorded weekly, in order to acclimate the fishes for at least two weeks before experiments begin. For the reproduction of the adult fishes, small breeding tanks were set up in the evening previous to the experiment, each containing three males and one female specimen. The tanks were isolated until the next morning when the lights switched on and the natural mating occurred, without any perturbation.
(§3) The adult fishes were returned to their corresponding tank and the embryos were collected, pooled, and washed with E3 medium and transferred into a 92 mm glass Petri dish. Further, the dead, delayed, malformed, and unfertilized embryos were identified under a dissecting microscope and removed by select aspiration with a pipette. This last procedure was repeated at 12 and 20 hpf in order to remove the unfit embryos. Throughout this period of time, the embryos were kept at 28 ± 2 °C in an incubator under natural light–dark photoperiods. The selected embryos of 24 hpf from the Petri dish were gently distributed into 96-well plates, placing a single embryo and 200 μL of E3 medium per well.
(§4) For this experiment, in total 72 embryos were required per sample in order to run three independent experiments in three different plates, and each compound was evaluated three times in the same plate, allowing the evaluation of four samples per plate. […] Each embryo was examined under a dissecting microscope and the statistical analysis was made using Regression Probit analysis with SPSS for windows version 19.0. Data are expressed as the standard error of the mean (SEM) of three different experiments in triplicate.

zebrafish embryos = experiment: in vivo; conditions: toxicity scale class from zebrafish LC50 in mg/L
Text: as §1, §2, §3, §4

[1] = LC50, zebrafish embryos, Figure 5 toxicity scale
[2] = Zebrafish LC50, zebrafish embryos, 96 hpf, 72 h exposure, mean ± SEM

For `CCCCCCCCCCC[C@@H](C[C@@H]1OC(=O)[C@H]1CCCCCC)OC(=O)[C@H](CC(C)C)NC=O` [Orlistat 15, orlistat], the LC50 (in vivo; [1]) was 86 µM, the LC50 (in vivo; [2]) was 87 µM and 43.1 µg/mL and the “Aquatic Animal Acute Toxicity” value (zebrafish embryos) was “ST (slightly toxic 10–100 (ST))”.
With `CCc1ccc2c(c1)C(c1ccccc1)CC(=O)N2Cc1ccccc1Br` (stereo not shown) [6f] the LC50 (in vivo; [2]) was 151 µM and 86.5 µg/mL and the “Aquatic Animal Acute Toxicity” value (zebrafish embryos) was “ST (slightly toxic 10–100 (ST))”.
In the case of `COc1ccc(O)cc1C(C)(C)C` [BHA 18, butylated hydroxyanisole], the LC50 (in vivo; [1]) is reported as 90.2 µM, the LC50 (in vivo; [2]) is reported as 90.2 ± 1.15 µM and the “Aquatic Animal Acute Toxicity” value (zebrafish embryos) is reported as “ST (slightly toxic 10–100 (ST))”.
With `CCc1cc2c3c(c1)C(c1ccccc1)CC(=O)N3Cc1ccccc1-2` (stereo not shown) [4f] the LC50 (in vivo; [1]) was 67.8 µM, the LC50 (in vivo; [2]) was 67.8 µM and 60.2 µg/mL and the “Aquatic Animal Acute Toxicity” value (zebrafish embryos) was “ST (slightly toxic 10–100 (ST))”.
For `C=CCc1ccc(O)c(OC)c1` [Eugenol 19, eugenol], the LC50 (in vivo; [1]) was 114 µM, the LC50 (in vivo; [2]) was 114 µM and 18.7 µg/mL and the “Aquatic Animal Acute Toxicity” value (zebrafish embryos) was “ST (slightly toxic 10–100 (ST))”.
For `CCc1ccc(N(Cc2ccccc2Br)C(=O)/C=C/c2ccccc2)cc1` [7f], the LC50 (in vivo; [1]) was 137 µM, the LC50 (in vivo; [2]) was 137 µM and 51.2 µg/mL and the “Aquatic Animal Acute Toxicity” value (zebrafish embryos) was “ST (slightly toxic 10–100 (ST))”.
For `CC(C)Cn1cnc2c(N)nc3ccccc3c21` [Imiquimod 14, imiquimod], the LC50 at 72 h (in vivo; [1]) was 351 µM, the LC50 at 72 h (in vivo; [2]) was 351 µM and 84.3 µg/mL and the “Aquatic Animal Acute Toxicity” value (zebrafish embryos) was “ST (slightly toxic 10–100 (ST))”.
In the case of `CCc1ccc(NC(=O)/C=C/c2ccccc2)cc1` [8f], the LC50 (in vivo; [2]) is reported as 221 µM and 43.9 µg/mL and the “Aquatic Animal Acute Toxicity” value (zebrafish embryos) is reported as “ST (slightly toxic 10–100 (ST))”.
In the case of `CC[C@@]1(O)C(=O)OCc2c1cc1n(c2=O)Cc2cc3ccccc3nc2-1` [Camptothecin 13, camptothecin], the LC50 at 72 h (in vivo; [1]) is reported as 0.0038 µM, the LC50 at 72 h (in vivo; Zebrafish LC50, zebrafish embryos, 96 hpf, 72 h exposure, mean ± SEM, footnote c) is reported as 0.00384 ± 0.00021 µM and the “Aquatic Animal Acute Toxicity” value (zebrafish embryos) is reported as “T (super toxic 0–0.1 (T))”.

— PMC9741109, “Synthesis, In Silico and In Vivo Toxicity Assessment of Functionalized Pyridophenanthridinones via Sequential MW-Assisted Intramolecular Friedel-Crafts Alkylation and Direct C–H Arylation” (Molecules, 2022)
